Experimental data from patent US20230139171A1 (SITA Information Networking Computing UK Limited, priority 2019, published 2023).

How the values were obtained:
Assay type in all cases: cell-based
[1] = molecular target: T1, human TLR8 (Homo sapiens, UniProt Q9NR97); experiment: TLR8 inhibition reporter assay (HEK-Blue cells, SEAP reporter, R848 stimulation); settings: HEK-Blue cells overexpressing human TLR8, SEAP reporter, R848 15.9 μM; read-out: TLR8 IC50
T1 construct: host or cells: HEK-Blue cells
T1 sequence (Q9NR97 27-1041): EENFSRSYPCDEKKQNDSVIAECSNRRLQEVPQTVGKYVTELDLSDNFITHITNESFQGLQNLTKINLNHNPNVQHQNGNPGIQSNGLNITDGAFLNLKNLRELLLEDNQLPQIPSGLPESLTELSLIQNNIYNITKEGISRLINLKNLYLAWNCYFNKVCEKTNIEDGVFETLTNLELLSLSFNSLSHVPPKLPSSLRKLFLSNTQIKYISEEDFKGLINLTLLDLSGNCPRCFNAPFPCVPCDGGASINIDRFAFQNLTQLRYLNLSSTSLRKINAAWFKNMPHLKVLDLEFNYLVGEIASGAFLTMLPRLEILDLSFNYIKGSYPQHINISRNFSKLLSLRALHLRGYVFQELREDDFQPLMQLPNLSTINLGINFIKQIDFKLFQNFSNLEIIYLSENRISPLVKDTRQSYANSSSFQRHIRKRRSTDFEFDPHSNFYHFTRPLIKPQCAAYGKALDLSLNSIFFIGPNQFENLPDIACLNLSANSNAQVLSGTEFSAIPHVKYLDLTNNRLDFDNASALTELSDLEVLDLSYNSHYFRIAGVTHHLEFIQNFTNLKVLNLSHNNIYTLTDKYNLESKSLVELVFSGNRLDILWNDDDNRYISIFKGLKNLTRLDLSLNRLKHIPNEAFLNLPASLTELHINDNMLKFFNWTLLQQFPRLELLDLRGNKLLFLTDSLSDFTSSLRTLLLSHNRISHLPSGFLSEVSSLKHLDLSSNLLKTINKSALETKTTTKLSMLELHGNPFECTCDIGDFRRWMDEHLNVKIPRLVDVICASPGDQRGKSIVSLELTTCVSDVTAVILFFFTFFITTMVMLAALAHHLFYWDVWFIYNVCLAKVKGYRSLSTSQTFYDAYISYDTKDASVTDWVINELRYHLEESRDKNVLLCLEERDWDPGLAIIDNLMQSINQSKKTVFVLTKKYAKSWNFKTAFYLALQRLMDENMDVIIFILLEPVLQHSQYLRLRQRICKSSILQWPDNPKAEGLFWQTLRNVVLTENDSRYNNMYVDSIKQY
Summary of the method: (§1)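 Dose–response from 0.05 nM to 50 μM was run in HEK-Blue human TLR7, TLR8 and TLR9 reporter cells. After 30 min at room temperature with compound, ligand was added (TLR7 gardiquimod 7.5 μM; TLR8 R848 15.9 μM; TLR9 ODN2006 5 nM) and SEAP measured next day, at 22 h.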

[2] = molecular target: T2, human TLR9 (Homo sapiens, UniProt Q9NR96); experiment: TLR9 inhibition reporter assay (HEK-Blue cells, SEAP reporter, ODN2006 stimulation); settings: HEK-Blue cells overexpressing human TLR9, SEAP reporter, ODN2006 5 nM
T2 construct: host or cells: HEK-Blue cells
T2 sequence (Q9NR96 26-1032): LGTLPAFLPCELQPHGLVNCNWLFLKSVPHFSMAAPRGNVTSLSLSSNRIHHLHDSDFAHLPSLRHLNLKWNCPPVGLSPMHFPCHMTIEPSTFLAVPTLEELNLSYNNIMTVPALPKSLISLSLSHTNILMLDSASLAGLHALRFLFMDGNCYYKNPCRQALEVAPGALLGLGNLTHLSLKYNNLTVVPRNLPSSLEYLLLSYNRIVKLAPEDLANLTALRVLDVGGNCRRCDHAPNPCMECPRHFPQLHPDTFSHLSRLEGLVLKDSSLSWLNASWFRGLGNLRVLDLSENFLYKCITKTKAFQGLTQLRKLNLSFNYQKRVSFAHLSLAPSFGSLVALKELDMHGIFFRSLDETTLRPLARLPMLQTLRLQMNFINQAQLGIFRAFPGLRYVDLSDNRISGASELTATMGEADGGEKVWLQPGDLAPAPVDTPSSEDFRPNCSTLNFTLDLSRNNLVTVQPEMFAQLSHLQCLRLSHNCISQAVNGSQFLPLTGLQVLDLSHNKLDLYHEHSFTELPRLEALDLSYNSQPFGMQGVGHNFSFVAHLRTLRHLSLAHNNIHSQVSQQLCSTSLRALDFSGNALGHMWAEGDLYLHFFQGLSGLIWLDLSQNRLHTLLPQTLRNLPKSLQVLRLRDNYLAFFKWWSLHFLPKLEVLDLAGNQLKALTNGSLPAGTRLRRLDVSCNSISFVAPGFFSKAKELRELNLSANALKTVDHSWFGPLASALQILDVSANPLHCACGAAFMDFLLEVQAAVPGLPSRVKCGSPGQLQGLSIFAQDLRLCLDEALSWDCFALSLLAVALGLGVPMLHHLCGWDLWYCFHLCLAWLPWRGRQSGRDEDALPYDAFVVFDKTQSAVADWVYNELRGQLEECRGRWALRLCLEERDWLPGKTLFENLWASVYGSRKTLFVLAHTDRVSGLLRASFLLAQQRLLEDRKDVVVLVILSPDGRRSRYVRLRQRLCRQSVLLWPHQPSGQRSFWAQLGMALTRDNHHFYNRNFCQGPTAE
Summary of the method: as §1

[3] = molecular target: T3, human TLR7 (Homo sapiens, UniProt Q9NYK1); experiment: TLR7 inhibition reporter assay (HEK-Blue cells, SEAP reporter, gardiquimod stimulation); settings: HEK-Blue cells overexpressing human TLR7, SEAP reporter, gardiquimod 7.5 μM; read-out: TLR7 IC50
T3 construct: host or cells: HEK-Blue cells
T3 sequence (Q9NYK1 27-1049): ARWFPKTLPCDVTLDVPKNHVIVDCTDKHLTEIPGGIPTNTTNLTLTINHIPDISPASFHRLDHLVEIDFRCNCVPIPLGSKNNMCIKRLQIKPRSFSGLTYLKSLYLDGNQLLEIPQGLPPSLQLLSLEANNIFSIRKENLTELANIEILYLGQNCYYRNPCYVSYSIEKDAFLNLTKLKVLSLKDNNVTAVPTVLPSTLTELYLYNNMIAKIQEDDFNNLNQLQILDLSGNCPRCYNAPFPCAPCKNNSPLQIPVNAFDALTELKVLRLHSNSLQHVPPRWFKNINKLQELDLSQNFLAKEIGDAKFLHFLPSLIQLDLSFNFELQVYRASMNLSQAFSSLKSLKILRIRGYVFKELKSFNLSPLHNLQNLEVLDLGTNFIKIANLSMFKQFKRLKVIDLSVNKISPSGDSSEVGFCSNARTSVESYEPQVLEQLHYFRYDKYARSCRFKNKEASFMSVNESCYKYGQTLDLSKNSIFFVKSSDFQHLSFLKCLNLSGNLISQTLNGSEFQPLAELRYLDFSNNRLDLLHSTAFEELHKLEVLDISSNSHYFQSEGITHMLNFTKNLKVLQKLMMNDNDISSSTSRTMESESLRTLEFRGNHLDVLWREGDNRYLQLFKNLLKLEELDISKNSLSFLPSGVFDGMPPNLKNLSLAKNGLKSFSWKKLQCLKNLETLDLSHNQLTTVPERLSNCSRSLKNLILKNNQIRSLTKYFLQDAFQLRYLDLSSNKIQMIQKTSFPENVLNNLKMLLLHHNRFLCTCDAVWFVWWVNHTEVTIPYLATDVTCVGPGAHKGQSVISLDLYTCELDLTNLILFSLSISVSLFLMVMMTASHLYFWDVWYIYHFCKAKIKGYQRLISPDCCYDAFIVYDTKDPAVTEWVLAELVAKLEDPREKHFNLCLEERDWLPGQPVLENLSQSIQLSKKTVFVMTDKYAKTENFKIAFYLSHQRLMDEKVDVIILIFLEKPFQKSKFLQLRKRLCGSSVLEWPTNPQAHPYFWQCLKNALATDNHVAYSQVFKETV
Summary of the method: as §1

SMILES	IC50 [1] [µM]	IC50 [2] [µM]	IC50 [3] [µM]
CCN1CCN(c2nc3c(C(C)C)c(-c4cn5ncnc5c(C)c4C)[nH]c3s2)[C@H](C)C1 [Example 320, (R)-5-(7,8-dimethyl-[1,2,4]triazolo[1,5-a]pyridin-6-yl)-2-(4-ethyl-2-methylpiperazin-1-yl)-6-isopropyl-4H-pyrrolo[3,2-d]thiazole]	0.0013	21.9	0.00438
Cc1c(-c2[nH]c3sc(N4CCN(C5CCC5)C[C@H]4C)nc3c2C(C)C)cn2ncnc2c1C [Example 323]	0.00386	> 50	0.0224
Cc1c(-c2[nH]c3sc(N4CCN(C5CCN(C(C)C)CC5)C[C@H]4C)nc3c2C(C)C)cn2ncnc2c1C [Example 324]	0.00226	6.24	0.00696
Cc1c(-c2[nH]c3sc(N4CCN(CC(C)(C)O)C[C@H]4C)nc3c2C(C)C)cn2ncnc2c1C [Example 325, (R)-1-(4-(5-(7,8-dimethyl-[1,2,4]triazolo[1,5-a]pyridin-6-yl)-6-isopropyl-4H-pyrrolo[3,2-d]thiazol-2-yl)-3-methylpiperazin-1-yl)-2-methylpropan-2-ol]	0.00019	> 50	0.019
CNCC(=O)N1CCN(c2nc3c(C(C)C)c(-c4cn5ncnc5c(C)c4C)[nH]c3s2)[C@H](C)C1 [Example 326, (R)-1-(4-(5-(7,8-dimethyl-[1,2,4]triazolo[1,5-a]pyridin-6-yl)-6-isopropyl-4H-pyrrolo[3,2-d]thiazol-2-yl)-3-methylpiperazin-1-yl)-2-(methylamino)ethan-1-one]	0.00797	17.6	0.00542
Cc1c(-c2[nH]c3sc(N4CCN(C(=O)CN(C)C)C[C@H]4C)nc3c2C(C)C)cn2ncnc2c1C [Example 327, (R)-1-(4-(5-(7,8-dimethyl-[1,2,4]triazolo[1,5-a]pyridin-6-yl)-6-isopropyl-4H-pyrrolo[3,2-d]thiazol-2-yl)-3-methylpiperazin-1-yl)-2-(dimethylamino)ethan-1-one]	0.00711	15.8	0.0075
Cc1c(-c2[nH]c3sc(N4C[C@@H](C)N(C5COC5)C[C@@H]4C)nc3c2C(C)C)cn2ncnc2c1C [Example 328, 2-((2S,5R)-2,5-dimethyl-4-(oxetan-3-yl)piperazin-1-yl)-5-(7,8-dimethyl-[1,2,4]triazolo[1,5-a]pyridin-6-yl)-6-isopropyl-4H-pyrrolo[3,2-d]thiazole]	0.0128	18.8	0.0129
Cc1c(-c2[nH]c3sc(N4C[C@@H](C)N(C5CCOCC5)C[C@@H]4C)nc3c2C(C)C)cn2ncnc2c1C [Example 329, 2-((2S,5R)-2,5-dimethyl-4-(tetrahydro-2H-pyran-4-yl)piperazin-1-yl)-5-(7,8-dimethyl-[1,2,4]triazolo[1,5-a]pyridin-6-yl)-6-isopropyl-4H-pyrrolo[3,2-d]thiazole]	0.0603	14.7	0.414
Cc1c(-c2[nH]c3sc(N4C[C@@H](C)N(C(C)C)C[C@@H]4C)nc3c2C(C)C)cn2ncnc2c1C [Example 330, 5-(7,8-dimethyl-[1,2,4]triazolo[1,5-a]pyridin-6-yl)-6-isopropyl-2-((2S,5R)-4-isopropyl-2,5-dimethylpiperazin-1-yl)-4H-pyrrolo[3,2-d] thiazole]	0.0015	11.4	0.00834
CCN1C[C@H](C)N(c2nc3c(C(C)C)c(-c4cn5ncnc5c(C)c4C)[nH]c3s2)C[C@H]1C [Example 331, 5-(7,8-dimethyl-[1,2,4]triazolo[1,5-a]pyridin-6-yl)-2-((2S,5R)-4-ethyl-2,5-dimethylpiperazin-1-yl)-6-isopropyl-4H-pyrrolo[3,2-d]thiazole]	0.00049	6.31	0.00429
Cc1c(-c2[nH]c3sc(N4C[C@@H](C)N(CC5CC5)C[C@@H]4C)nc3c2C(C)C)cn2ncnc2c1C [Example 332, 2-((2S,5R)-4-(cyclopropylmethyl)-2,5-dimethylpiperazin-1-yl)-5-(7,8-dimethyl-[1,2,4]triazolo[1,5-a]pyridin-6-yl)-6-isopropyl-4H-pyrrolo[3,2-d]thiazole]	0.00191	10.2	0.0169
Cc1c(-c2[nH]c3sc(N4C[C@@H](C)N(C5CCC5)C[C@@H]4C)nc3c2C(C)C)cn2ncnc2c1C [Example 333, 2-((2S,5R)-4-cyclobutyl-2,5-dimethylpiperazin-1-yl)-5-(7,8-dimethyl-[1,2,4]triazolo[1,5-a]pyridin-6-yl)-6-isopropyl-4H-pyrrolo[3,2-d]thiazole]	0.00219	37.4	0.0349
Cc1c(-c2[nH]c3sc(N4C[C@@H](C)N(C(C)C)C[C@@H]4C)nc3c2C(C)C)cn2ncnc2c1C [Example 334, 5-(7,8-dimethyl-[1,2,4]triazolo[1,5-a]pyridin-6-yl)-6-isopropyl-2-((2S,5R)-4-isopropyl-2,5-dimethylpiperazin-1-yl)-4H-pyrrolo[3,2-d]thiazole]	0.00319	4.83	0.0136
